Laboratory results as given in PMC4639830, “Inhibition of DYRK1A and GSK3B induces human β-cell proliferation” (Nature Communications, 2015).

Key:
diabetic RIP-DTA mice = assay: RIP-DTA mouse model of T1D; type: in vivo; settings: 50 mg kg^−1 twice daily
Excerpt: All animal care and experimental procedures were approved by the Institutional Animal Care and Use Committee (IACUC) of Genomics Institute of the Novartis Research Foundation and strictly followed the NIH guidelines for humane treatment of animals. The double transgenic RIP-DTA male mice (Tg(Ins2-rtTA)2Efr Tg(teto-DTA)1Gfi/J; Jackson Laboratory, Stock # 008755) were bred in-house and were maintained in a 12-h light/12-dark cycle environment with controlled temperature, humidity and ventilation. Animals were housed 3–5 mice per cage and had free access to water and standard laboratory chow. To induce pancreatic β-cell ablation and hyperglycaemia, doxycycline (200 μg ml^−1, Sigma-Aldrich) was provided in the drinking water for 5 days. Blood glucose levels were measured from tail-vein blood with a glucometer (AlphaTrak2 Monitoring System; Abbott). Experimental groups of 14 male mice each were randomized based on similar body weights (28.8±2.4 g), age (82±2 days), and blood glucose levels (428±96 mg dl^−1). Group sizes of eight animals each are sufficient to reliably detect changes in glycaemic control and β-cell mass based on historical data with reference compounds; an additional six mice were added to each group to assess total pancreatic insulin levels. […] A sub-set of animals were not given doxycycline treatment and were used as a non-diabetic vehicle–control group. All compounds were administered daily via oral gavage (4 ml kg^−1). Body weight and blood glucose were monitored every third day. An oral glucose tolerance test was performed after an overnight fast on day 12. For the insulin tolerance test, mice were fasted for 4 h before the administration of insulin (Novolin, Novo Nordisk, 0.7 U kg^−1 body weight, i.p.). Pancreatic insulin content was determined by MSD (meso-scale discovery). […] To determine β-cell proliferation and β-cell mass by morphological analyses, pancreata from the rest of animals (n=8) were rapidly dissected, fixed in formalin, sectioned and immunostained for insulin, Ki67 and BrdU on day 16. Male NSG mice, aged 8 weeks, were obtained from the Jackson Laboratory (Strain NOD.Cg-Prkdc^scid Il2rg^tm1Wjl/SzJ; Stock number 005557) and housed according to IACUC guidelines. Baseline body weight and tail-vein blood glucose measurements were recorded before diabetic induction. To obtain a diabetic state, animals were given an intraperitoneal dose of STZ (135 mg kg^−1) and blood glucose was monitored before transplant. Mice were grouped according to body weight and blood glucose level on the day of transplants (72 h after STZ treatment).
Pancreas specimens were harvested, weighed, fixed in 10% neutral buffered formalin and processed using standard paraffin processing techniques. Five micrometre serial-step sections were mounted onto Superfrost Plus slides and air-dried overnight. Samples were coded before histologic analyses resulting in blinded processing and staining. Routine hematoxylin and eosin (H&E) stains were performed on all specimens. Immunostaining was performed using the Ventana Discovery XT system. All epitope retrieval was done on the instrument using CC1 reagent. Chromogenic insulin was detected using guinea pig anti-insulin (Dako Corp A0564) at 1:3,200 and the Blue Map kit, after serum blocking and endogenous biotin blocking was performed, slides were then counterstained with Nuclear Fast Red. Fluorescent insulin and Ki67 double stains used a cocktail of the Dako anti-insulin at 1:1,600 and rabbit monoclonal Ki67 (Thermo RM9106) at 1:100, and were detected using a cocktail of Alexa Fluor 488 and 594-labelled secondary antibodies. Auto-fluorescence was quenched in red blood cells and reduced in connective tissue by treatment with 10 mM copper sulfate. Slides were counterstained with DAPI. 21 slides were collected per block. All slides were imaged on the Hamamatsu Nanozoomer and evaluated for β-cell mass and proliferation. […]

primary human islets = assay: TUNEL in β-cells; type: cell-based; settings: 4 days in the presence of EdU
Method: Supplementary Figure 2. […] (a-c) Primary human […]
for 4 days in the presence of EdU. […]
effects on TUNEL in EdU positive cells while CDK6 and Cyclin D1 increased TUNEL staining in EdU positive cells (consistent with previous reports) (n=3; mean ± SD). (d) Human islets were […]
for 16 hrs in the presence of EdU. Following treatment, cells were analyzed for TUNEL, and stained for insulin and DAPI.
TUNEL without EdU incorporation. […]
(1 picture or pasted object on this page, not shown here)

Fyn = target: T1, Fyn (Homo sapiens, UniProt P06241); assay: Kinase profiling; type: biochemical; settings: read-out: Percent inhibition, Fyn
T1 construct: purchased Ambit KINOMEscan
T1 sequence (P06241 whole entry): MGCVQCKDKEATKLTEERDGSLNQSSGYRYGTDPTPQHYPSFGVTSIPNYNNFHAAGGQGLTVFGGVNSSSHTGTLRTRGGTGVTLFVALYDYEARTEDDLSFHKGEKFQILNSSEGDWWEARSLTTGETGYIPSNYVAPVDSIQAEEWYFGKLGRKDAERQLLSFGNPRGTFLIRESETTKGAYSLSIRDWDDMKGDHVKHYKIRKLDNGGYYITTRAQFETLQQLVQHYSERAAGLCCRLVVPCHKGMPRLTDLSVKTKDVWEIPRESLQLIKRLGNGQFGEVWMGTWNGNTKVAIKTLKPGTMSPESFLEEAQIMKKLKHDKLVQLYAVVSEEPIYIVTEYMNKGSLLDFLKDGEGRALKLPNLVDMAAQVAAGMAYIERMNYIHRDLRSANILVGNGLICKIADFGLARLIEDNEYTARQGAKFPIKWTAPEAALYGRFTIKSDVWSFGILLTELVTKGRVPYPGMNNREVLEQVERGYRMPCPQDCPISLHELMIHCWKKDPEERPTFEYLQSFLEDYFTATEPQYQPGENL
Excerpt: ; Fig. 5a; Supplementary Table 1). We focused on Dyrk1a because other kinases inhibited by aminopyrazine compounds were not highly expressed in β-cells and because Dyrk1a was known to inhibit the NFAT pathway that was previously implicated in β-cell proliferation. We used molecular modelling to dock the aminopyrazine compounds into the published structure of Dyrk1a (protein databank accession code 2vx3.pdb; Fig. 5b).

## CC(C)Oc1ccc(F)c(-c2cnc(N)c(C(=O)Nc3cnccc3N3CCC[C@@H](C(=O)O)C3)n2)c1 [GNF4877]
Diabetic RIP-DTA mice; 14 days of dosing
  oral glucose tolerance vs vehicle: dramatically improved glucose tolerance
Diabetic RIP-DTA mice; oral
  body weight, appearance or behaviour vs vehicle: did not show any difference in body weight
  insulin tolerance vs vehicle: without a significant difference in insulin tolerance
  non-fasting blood glucose levels: progressive reduction of non-fasting blood glucose levels
Diabetic RIP-DTA mice; oral, 14 days
  β-cell mass, increase vs vehicle-treated diabetic mice: ~1.5 fold
Diabetic RIP-DTA mice; oral, whole pancreas lysate, 15 days
  insulin content, increase vs vehicle-treated diabetic mice: twofold
Primary human islets
  TUNEL-positive β-cells: unchanged
Fyn; Conc 200 nM
  inhibition at 0.2 µM: 26%
Fyn; Conc 1000 nM
  inhibition at 1 µM: 77%
